Assay in all cases: Net tumor volume in tumor xenografts
Holding throughout (format): in vivo, female athymic mice

In experiment [1] the test system is LOX-IMVI melanoma tumor xenografts. As to conditions: DTIC 30 mg/kg, Carboplatin 25 mg/kg, i.p. From the text:
(§1) Athymic nude female mice were received from Harlan Sprague Dawley, Madison, Wis. at 4-5 weeks of age. Mice were acclimated to the laboratory for at least one week prior to implantation of tumor. Animals were housed in static cages with food and water allowed ad libitum. Experimental animals were implanted with either tumor fragments derived from transplantation established human tumors or with cells obtain directly from in vitro culture. Tumors were implanted subcutaneously on the right flank on Day 0.
(§2) Tumor size measurements were recorded twice weekly beginning on day 4 or 5 using vernier calipers. The formula to calculate volume for a prolate ellipsoid was used to estimate tumor volume from 2-dimensional tumor measurements: tumor volume (mm^3)=(length×width^2)÷2. Assuming unit density, volume was converted to weight (i.e., 1 mm^3=1 mg). […] Treatments were initiated and administered on an individual body weight basis. A dose range finding study was performed on each tumor model to determine the appropriate dose level of each compound used in the combination studies.

The test system of experiment [2] is MRI-H187 melanoma tumor xenografts. As to conditions: Aplidine 50 μg/kg, DTIC 40 mg/kg, Carboplatin 25 mg/kg, i.p.
Description: as §1, §2

In experiment [3] the test system is CaKi-1 renal tumor xenografts. As to conditions: Aplidine 50 μg/kg i.p., Avastin 5.0 mg/kg i.p., IL-2 2 μg/mouse i.p., INF-α 200,000 U/mouse s.c.
Description: as §1, §2

The subject of experiment [4] is MRI-H121 renal tumor xenografts. As to conditions: Aplidine 25 μg/kg i.p., Avastin […] i.p., IL-2 1 μg/mouse i.p., INF-α 200,000 U/mouse s.c.
Description: as §1, §2

For the compound `CN(C)/N=N/c1[nH]cnc1C(N)=O` [DTIC, dacarbazine], the “Net Tumor Volume ± S.E.M.” value is on record as 208 ± 25 mg in experiment [1] (DAY 8, Aplidine 50 μg/kg); 699 ± 57 mg in experiment [1] (DAY 12, Aplidine 50 μg/kg); 950 ± 57 mg in experiment [1] (DAY 14, Aplidine 50 μg/kg); 2695 ± 560 mg in experiment [1] (DAY 19, Aplidine 50 μg/kg); 148 ± 14 mg in experiment [2] (MRI-H187, DAY 20); 264 ± 60 mg in experiment [2] (MRI-H187, DAY 24). Moreover, the “Net Tumor Volume ± S.E.M.” value in experiment [2] (MRI-H187, DAY 27) is 377 ± 98 mg; in experiment [2] (MRI-H187, DAY 31), 558 ± 152 mg; in experiment [2] (MRI-H187, DAY 34) it was 681 ± 187 mg; in experiment [2] (MRI-H187, DAY 38), 927 ± 274 mg; in experiment [2] (MRI-H187, DAY 46), 1508 ± 427 mg; in experiment [2] (MRI-H187, DAY 49) it was 1804 ± 507 mg. The “Net Tumor Volume ± S.E.M.” value in experiment [2] (MRI-H187, DAY 52) amounted to 2036 ± 525 mg; in experiment [2] (MRI-H187, DAY 55), 2123 ± 558 mg; in experiment [2] (MRI-H187, DAY 59), 2166 ± 563 mg; in experiment [2] (MRI-H187, DAY 62), 2333 ± 433 mg; in experiment [2] (MRI-H187, DAY 66), 2508 ± 536 mg.
Consider “Avastin ®: Bevacizumab (Avastin®), standard of care agent”, for which the “Net Tumor Volume ± S.E.M.” value in experiment [3] (CaKi-1, DAY 13) is 105 ± 3 mg; in experiment [3] (CaKi-1, DAY 15), 162 ± 14 mg; in experiment [3] (CaKi-1, DAY 19) it was 286 ± 49 mg; in experiment [3] (CaKi-1, DAY 22), 398 ± 53 mg; in experiment [3] (CaKi-1, DAY 26) it was 632 ± 79 mg; in experiment [3] (CaKi-1, DAY 29) it was 811 ± 90 mg. Besides, the “Net Tumor Volume ± S.E.M.” value was 985 ± 111 mg in experiment [3] (CaKi-1, DAY 33); 1251 ± 109 mg in experiment [3] (CaKi-1, DAY 36); 1654 ± 189 mg in experiment [3] (CaKi-1, DAY 41); 2170 ± 253 mg in experiment [3] (CaKi-1, DAY 47); 2842 ± 379 mg in experiment [3] (CaKi-1, DAY 50); 106 ± 7 mg in experiment [4] (MRI-H121, DAY 11). The “Net Tumor Volume ± S.E.M.” value is given as 171 ± 16 mg in experiment [4] (MRI-H121, DAY 14); 306 ± 27 mg in experiment [4] (MRI-H121, DAY 18); 299 ± 39 mg in experiment [4] (MRI-H121, DAY 19); 365 ± 39 mg in experiment [4] (MRI-H121, DAY 21); 503 ± 57 mg in experiment [4] (MRI-H121, DAY 26); 678 ± 77 mg in experiment [4] (MRI-H121, DAY 29). Moreover, the “Net Tumor Volume ± S.E.M.” value is 899 ± 93 mg in experiment [4] (MRI-H121, DAY 32); 898 ± 69 mg in experiment [4] (MRI-H121, DAY 35); 1240 ± 124 mg in experiment [4] (MRI-H121, DAY 39); 1383 ± 148 mg in experiment [4] (MRI-H121, DAY 42).

The values above are taken from patent US8258098B2, “Antitumoral treatments” (Pharma Mar, S.A., priority 2006, dated 2012).
